Experimental data from US11549123B2, “Plant EPSP synthases and methods of use” (PIONEER HI-BRED INTERNATIONAL, INC., priority 2015, dated 2023).
Substitutions are numbered along the chain they refer to.

Experiments:
Assay type in all cases: biochemical
[1] = molecular target: Zea mays EPSPS variant WT-FS-D (101S 107L 302S 338S) (Zea mays, UniProt O24566, A100S/A337S/E301S/P106L); assay: EPSPS substrate saturation kinetics, WT-FS-D
Experimental: EPSPS activity was determined by quantifying the phosphate generated from the EPSPS reaction. Release of inorganic phosphate was coupled to reaction with 2-amino-6-mercapto-7-methylpurine ribonucleoside, catalyzed by purine-nucleoside phosphorylase (M R Webb, Proc. Natl. Acad. Sci. 89:4884-4887, 1992). The absorbance change that occurs was monitored at 360 nm, where the extinction is 11,200 M^−1 cm^−1, with a Spectramax plate reader (Molecular Devices). To determine kinetic parameters, the varied substrate was present at seven concentrations (the eighth being the blank, containing no substrate) ranging from 4 to 400 uM and the unvaried substrate present at saturation. […] Reactions were monitored with a Spectramax plate reader. […] KI was then calculated from the following form of the Michaelis-Menten equation for competitive inhibition: KI=KM[I]/(KM app−KM) KM approximates the dissociation constant of the enzyme-substrate complex while kcat is the rate of conversion of substrate to product when the substrate concentration is saturating. kcat/KM is a widely accepted parameter for catalytic efficiency when substrate concentration is low (˜KM). […] The parameter kcat/KM×KI is used to quantify both catalytic efficiency and insensitivity and thus the overall fitness of the enzyme. […]

[2] = molecular target: T1, Zea mays EPSPS variant Zm-H6 (868-H6) with K246G (H6-K246G) (Zea mays, UniProt O24566, A1R/A3W/A415G/A71Q/D401G/E301S/E390G/G101A/I207L/K245G/K83R/L97C/T278A/T360S/T440Q/V437R); assay: Substrate saturation kinetic analysis with glyphosate, H6-K246G
T1 construct: 868-H6 plus K246G; E. coli BL21(DE3), Ni-NTA purified
T1 sequence (O24566 with tags, fused parts or gaps A1R/A3W/A71Q/K83R/L97C/G101A/I207L/K245G/T278A/E301S/T360S/E390G/D401G/A415G/V437R/T440Q): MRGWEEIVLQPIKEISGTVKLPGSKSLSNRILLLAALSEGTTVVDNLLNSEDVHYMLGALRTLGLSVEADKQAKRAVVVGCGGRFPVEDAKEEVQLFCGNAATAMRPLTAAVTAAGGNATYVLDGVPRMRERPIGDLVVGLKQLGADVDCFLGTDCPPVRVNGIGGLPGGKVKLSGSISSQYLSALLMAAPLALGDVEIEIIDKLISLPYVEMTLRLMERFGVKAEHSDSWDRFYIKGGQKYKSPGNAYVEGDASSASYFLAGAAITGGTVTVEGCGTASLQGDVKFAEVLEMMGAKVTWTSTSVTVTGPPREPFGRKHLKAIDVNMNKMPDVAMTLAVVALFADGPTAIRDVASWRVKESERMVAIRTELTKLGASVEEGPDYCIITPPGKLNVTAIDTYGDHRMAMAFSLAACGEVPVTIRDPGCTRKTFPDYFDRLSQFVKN

[3] = molecular target: T2, Zea mays EPSPS variant Zm-H6 (868-H6) with D196V (H6-D196V) (Zea mays, UniProt O24566, A1R/A3W/A415G/A71Q/D195V/D401G/E301S/E390G/G101A/I207L/K83R/L97C/T278A/T360S/T440Q/V437R); assay: Substrate saturation kinetic analysis with glyphosate, H6-D196V
T2 construct: shuffled variant 868-H6 plus D196V; E. coli BL21(DE3), Ni-NTA purified
T2 sequence (O24566 with tags, fused parts or gaps A1R/A3W/A71Q/K83R/L97C/G101A/D195V/I207L/T278A/E301S/T360S/E390G/D401G/A415G/V437R/T440Q): T1 sequence (O24566 with tags, fused parts or gaps A1R/A3W/A71Q/K83R/L97C/G101A/I207L/K245G/T278A/E301S/T360S/E390G/D401G/A415G/V437R/T440Q) with D196V, G246K

Zea mays EPSPS variant WT-FS-D (101S 107L 302S 338S), sequence (O24566 entry or part of it A100S/P106L/E301S/A337S): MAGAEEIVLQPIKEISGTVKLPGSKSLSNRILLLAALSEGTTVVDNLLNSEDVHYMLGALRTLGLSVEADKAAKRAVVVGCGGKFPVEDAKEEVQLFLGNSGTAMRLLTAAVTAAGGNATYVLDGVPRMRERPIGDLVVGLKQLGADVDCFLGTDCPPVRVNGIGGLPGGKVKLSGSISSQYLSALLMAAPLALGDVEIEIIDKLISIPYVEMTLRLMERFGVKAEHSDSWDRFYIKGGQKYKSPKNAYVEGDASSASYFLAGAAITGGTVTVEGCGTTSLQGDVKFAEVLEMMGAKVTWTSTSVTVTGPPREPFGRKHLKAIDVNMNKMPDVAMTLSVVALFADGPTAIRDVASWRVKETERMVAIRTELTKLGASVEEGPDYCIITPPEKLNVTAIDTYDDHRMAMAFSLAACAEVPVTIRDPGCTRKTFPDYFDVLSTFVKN

## O=C(O)CNCP(=O)(O)O [glyphosate, N-phosphonomethylglycine]
[1]
  Ki: 3.81 µM
[1]; PEP as substrate, glyphosate as inhibitor
  (kcat/KM)*KI: 346
[2]
  Ki: 284 µM
[2]; substrate saturation, H6-K246G
  (kcat/KM)*KI: 2490
[3]
  Ki: 699 µM
[3]; substrate saturation, H6-D196V
  (kcat/KM)*KI: 1860
